Earlier results, collected in patent US20150258078A1 (priority 2014, published 2015).
Read-outs that look alike come from different tables or passages of the source.

Tests used:
[1] = test system: type 2 diabetic and nondiabetic subjects; settings: 61.4 micromol/day for 28 days; for VLDL, mean of absolute differences between 0 and 28 day treatment +/- S.E.M. / triacylglycerol, mean of absolute differences between 0 and 28 day treatment +/- S.E.M.: plasma
[2] = test system: male inbred BHE (IN-BHE) rats; settings: after the injection of 300 µg
[3] = test system: patients with elevated cholesterol and triglycerides; settings: multiple clinical trials; daily intakes 600 to 1200 mg/day

Question: Which “VLDL, mean of absolute differences between 0 and 28 day treatment +/- S.E.M.” value ([1]; diabetic group) does the source give for `O=C(O)CCCC[C@@H]1SC[C@@H]2NC(=O)N[C@@H]21` [Biotin] here?
Answer: −0.11+/−0.04

Question: And the “triacylglycerol, mean of absolute differences between 0 and 28 day treatment +/- S.E.M.” value ([1]; diabetic group)?
Answer: −0.55+/−0.2

Question: And the “cholesterol, glucose and insulin” value ([1]; diabetic or nondiabetic subjects)?
Answer: no significant effects

Question: And the “VLDL, mean of absolute differences between 0 and 28 day treatment +/- S.E.M.” value ([1]; nondiabetic group)?
Answer: −0.18+/−0.07

Question: What about the “triacylglycerol, mean of absolute differences between 0 and 28 day treatment +/- S.E.M.” value ([1]; nondiabetic group) of the same compound?
Answer: −0.92+/−0.36

Question: What about the “plasma levels of lactate and pyruvate” value [2] of the same compound?
Answer: fell

Question: With Pantethine as the compound, how does the HDL cholesterol increased [3] read?
Answer: 9%

Question: What about the total cholesterol decreased [3] of the same compound?
Answer: 12%

Question: What about the triglycerides decreased [3] of the same compound?
Answer: 18%
